# In patent US8192962B2, “Processes for detecting toxic substances” (Daikin Industries, Ltd., priority 2001, dated 2012):
# Test system: Metabolism protein genes
# Assay: DNA chip mRNA expression in yeast, metabolism protein genes (Table 7)
# Format: cell-based, Saccharomyces cerevisiae S288C
# Procedure, shortened: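 Expression change after 2 h toxicant exposure (growth-inhibiting, sub-lethal) of log-phase S. cerevisiae S288C at 25° C. Oligo-dT-purified mRNA was labeled with Cy3-dUTP or Cy5-dUTP and hybridized >12 h at 65° C. to a genome-wide chip; ratio of scanned fluorescence to control.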
structure (smiles),measurement,setting,value
"O=[N+]([O-])c1cc[n+]([O-])c2ccccc12 [(5), 4-nitroquinolin-N-oxide]",The level of expressed mRNA in the presence of chemical substance/The level of expressed mRNA in the absence of chemical substance,yeast gene YJR148W,0.6
same,The level of expressed mRNA in the presence of chemical substance/The level of expressed mRNA in the absence of chemical substance,yeast gene YJR155W,0.7
same,The level of expressed mRNA in the presence of chemical substance/The level of expressed mRNA in the absence of chemical substance,yeast gene YKL035W,0.8
same,level of expressed mRNA in the presence/in the absence of chemical substance,yeast gene YKL060C,1.6
same,The level of expressed mRNA in the presence of chemical substance/The level of expressed mRNA in the absence of chemical substance,yeast gene YKL091C,1.0
same,The level of expressed mRNA in the presence of chemical substance/The level of expressed mRNA in the absence of chemical substance,yeast gene YKL104C,1.4
same,level of expressed mRNA in the presence/in the absence of chemical substance,yeast gene YKL148C,0.8
same,The level of expressed mRNA in the presence of chemical substance/The level of expressed mRNA in the absence of chemical substance,yeast gene YKL152C,1.3
same,level of expressed mRNA in the presence/in the absence of chemical substance,yeast gene YKL157W,1.5
same,The level of expressed mRNA in the presence of chemical substance/The level of expressed mRNA in the absence of chemical substance,yeast gene YKL213C,0.7
same,The level of expressed mRNA in the presence of chemical substance/The level of expressed mRNA in the absence of chemical substance,yeast gene YKL215C,1.0
same,level of expressed mRNA in the presence/in the absence of chemical substance,yeast gene YKR034W,0.9
same,The level of expressed mRNA in the presence of chemical substance/The level of expressed mRNA in the absence of chemical substance,yeast gene YKR039W,1.0
same,The level of expressed mRNA in the presence of chemical substance/The level of expressed mRNA in the absence of chemical substance,yeast gene YLL058W,0.8
same,level of expressed mRNA in the presence/in the absence of chemical substance,yeast gene YLR006C,1.6
same,level of expressed mRNA in the presence/in the absence of chemical substance,yeast gene YLR044C,1.7
same,level of expressed mRNA in the presence/in the absence of chemical substance,yeast gene YLR056W,1.6
same,level of expressed mRNA in the presence/in the absence of chemical substance,yeast gene YLR058C,0.7
same,level of expressed mRNA in the presence/in the absence of chemical substance,yeast gene YLR081W,1.0
same,level of expressed mRNA in the presence/in the absence of chemical substance,yeast gene YLR089C,0.8
same,The level of expressed mRNA in the presence of chemical substance/The level of expressed mRNA in the absence of chemical substance,yeast gene YLR180W,0.8
same,level of expressed mRNA in the presence/in the absence of chemical substance,yeast gene YLR284C,1.6
same,The level of expressed mRNA in the presence of chemical substance/The level of expressed mRNA in the absence of chemical substance,yeast gene YLR299W,0.6
same,The level of expressed mRNA in the presence of chemical substance/The level of expressed mRNA in the absence of chemical substance,yeast gene YLR300W,0.8
same,level of expressed mRNA in the presence/in the absence of chemical substance,yeast gene YLR304C,0.6
same,The level of expressed mRNA in the presence of chemical substance/The level of expressed mRNA in the absence of chemical substance,yeast gene YLR307W,1.4
same,The level of expressed mRNA in the presence of chemical substance/The level of expressed mRNA in the absence of chemical substance,yeast gene YLR348C,0.9
same,level of expressed mRNA in the presence/in the absence of chemical substance,yeast gene YLR354C,1.6
same,level of expressed mRNA in the presence/in the absence of chemical substance,yeast gene YLR372W,1.4
same,level of expressed mRNA in the presence/in the absence of chemical substance,yeast gene YML022W,1.3
same,The level of expressed mRNA in the presence of chemical substance/The level of expressed mRNA in the absence of chemical substance,yeast gene YML054C,1.3
same,The level of expressed mRNA in the presence of chemical substance/The level of expressed mRNA in the absence of chemical substance,yeast gene YML070W,1.4
same,The level of expressed mRNA in the presence of chemical substance/The level of expressed mRNA in the absence of chemical substance,yeast gene YML100W,0.9
same,The level of expressed mRNA in the presence of chemical substance/The level of expressed mRNA in the absence of chemical substance,yeast gene YMR008C,1.1
same,level of expressed mRNA in the presence/in the absence of chemical substance,yeast gene YMR011W,0.9
same,level of expressed mRNA in the presence/in the absence of chemical substance,yeast gene YMR015C,1.7
same,The level of expressed mRNA in the presence of chemical substance/The level of expressed mRNA in the absence of chemical substance,yeast gene YMR020W,1.4
same,level of expressed mRNA in the presence/in the absence of chemical substance,yeast gene YMR083W,1.5
same,The level of expressed mRNA in the presence of chemical substance/The level of expressed mRNA in the absence of chemical substance,yeast gene YMR105C,0.9
same,The level of expressed mRNA in the presence of chemical substance/The level of expressed mRNA in the absence of chemical substance,yeast gene YMR189W,0.4
same,level of expressed mRNA in the presence/in the absence of chemical substance,yeast gene YMR205C,1.2
same,level of expressed mRNA in the presence/in the absence of chemical substance,yeast gene YMR261C,0.9
same,The level of expressed mRNA in the presence of chemical substance/The level of expressed mRNA in the absence of chemical substance,yeast gene YMR271C,1.1
same,The level of expressed mRNA in the presence of chemical substance/The level of expressed mRNA in the absence of chemical substance,yeast gene YMR296C,0.4
same,level of expressed mRNA in the presence/in the absence of chemical substance,yeast gene YMR323W,0.7
same,The level of expressed mRNA in the presence of chemical substance/The level of expressed mRNA in the absence of chemical substance,yeast gene YNL012W,1.3
same,level of expressed mRNA in the presence/in the absence of chemical substance,yeast gene YNL025C,0.7
same,The level of expressed mRNA in the presence of chemical substance/The level of expressed mRNA in the absence of chemical substance,yeast gene YNL037C,1.7
same,The level of expressed mRNA in the presence of chemical substance/The level of expressed mRNA in the absence of chemical substance,yeast gene YNL045W,1.1
same,The level of expressed mRNA in the presence of chemical substance/The level of expressed mRNA in the absence of chemical substance,yeast gene YNL104C,0.8
same,The level of expressed mRNA in the presence of chemical substance/The level of expressed mRNA in the absence of chemical substance,yeast gene YNL106C,0.8
same,The level of expressed mRNA in the presence of chemical substance/The level of expressed mRNA in the absence of chemical substance,yeast gene YNL169C,0.7
same,level of expressed mRNA in the presence/in the absence of chemical substance,yeast gene YNL192W,0.9
same,The level of expressed mRNA in the presence of chemical substance/The level of expressed mRNA in the absence of chemical substance,yeast gene YNL231C,2.1
same,The level of expressed mRNA in the presence of chemical substance/The level of expressed mRNA in the absence of chemical substance,yeast gene YNL322C,1.4
same,The level of expressed mRNA in the presence of chemical substance/The level of expressed mRNA in the absence of chemical substance,yeast gene YNL331C,1.6
same,The level of expressed mRNA in the presence of chemical substance/The level of expressed mRNA in the absence of chemical substance,yeast gene YNL332W,1.6
same,The level of expressed mRNA in the presence of chemical substance/The level of expressed mRNA in the absence of chemical substance,yeast gene YNR002C,1.2
same,The level of expressed mRNA in the presence of chemical substance/The level of expressed mRNA in the absence of chemical substance,yeast gene YNR019W,0.8
same,The level of expressed mRNA in the presence of chemical substance/The level of expressed mRNA in the absence of chemical substance,yeast gene YNR033W,1.3
same,The level of expressed mRNA in the presence of chemical substance/The level of expressed mRNA in the absence of chemical substance,yeast gene YNR059W,1.4
same,The level of expressed mRNA in the presence of chemical substance/The level of expressed mRNA in the absence of chemical substance,yeast gene YOL058W,1.2
same,level of expressed mRNA in the presence/in the absence of chemical substance,yeast gene YOL086C,1.9
same,level of expressed mRNA in the presence/in the absence of chemical substance,yeast gene YOL108C,2.1
same,level of expressed mRNA in the presence/in the absence of chemical substance,yeast gene YOL116W,1.7
same,The level of expressed mRNA in the presence of chemical substance/The level of expressed mRNA in the absence of chemical substance,yeast gene YOL126C,0.7
same,The level of expressed mRNA in the presence of chemical substance/The level of expressed mRNA in the absence of chemical substance,yeast gene YOL153C,1.2
same,level of expressed mRNA in the presence/in the absence of chemical substance,yeast gene YOL156W,1.2
same,The level of expressed mRNA in the presence of chemical substance/The level of expressed mRNA in the absence of chemical substance,yeast gene YOL165C,0.9
same,level of expressed mRNA in the presence/in the absence of chemical substance,yeast gene YOR002W,1.1
same,level of expressed mRNA in the presence/in the absence of chemical substance,yeast gene YOR085W,1.0
same,The level of expressed mRNA in the presence of chemical substance/The level of expressed mRNA in the absence of chemical substance,yeast gene YOR099W,1.5
same,level of expressed mRNA in the presence/in the absence of chemical substance,yeast gene YOR103C,1.5
same,level of expressed mRNA in the presence/in the absence of chemical substance,yeast gene YOR108W,1.1
same,level of expressed mRNA in the presence/in the absence of chemical substance,yeast gene YOR128C,1.1
same,The level of expressed mRNA in the presence of chemical substance/The level of expressed mRNA in the absence of chemical substance,yeast gene YOR130C,1.8
same,level of expressed mRNA in the presence/in the absence of chemical substance,yeast gene YOR142W,1.4
same,level of expressed mRNA in the presence/in the absence of chemical substance,yeast gene YOR176W,1.0
same,level of expressed mRNA in the presence/in the absence of chemical substance,yeast gene YOR178C,1.0
same,level of expressed mRNA in the presence/in the absence of chemical substance,yeast gene YOR251C,0.8
same,The level of expressed mRNA in the presence of chemical substance/The level of expressed mRNA in the absence of chemical substance,yeast gene YOR336W,1.3
same,The level of expressed mRNA in the presence of chemical substance/The level of expressed mRNA in the absence of chemical substance,yeast gene YOR347C,0.7
same,level of expressed mRNA in the presence/in the absence of chemical substance,yeast gene YOR348C,0.9
same,The level of expressed mRNA in the presence of chemical substance/The level of expressed mRNA in the absence of chemical substance,yeast gene YPL017C,1.3
same,level of expressed mRNA in the presence/in the absence of chemical substance,yeast gene YPL028W,1.0
same,level of expressed mRNA in the presence/in the absence of chemical substance,yeast gene YPL057C,1.9
same,level of expressed mRNA in the presence/in the absence of chemical substance,yeast gene YPL135W,1.6
same,level of expressed mRNA in the presence/in the absence of chemical substance,yeast gene YPL148C,1.1
same,The level of expressed mRNA in the presence of chemical substance/The level of expressed mRNA in the absence of chemical substance,yeast gene YPR026W,0.8
same,level of expressed mRNA in the presence/in the absence of chemical substance,yeast gene YPR113W,2.0
same,level of expressed mRNA in the presence/in the absence of chemical substance,yeast gene YPR165W,1.5
same,The level of expressed mRNA in the presence of chemical substance/The level of expressed mRNA in the absence of chemical substance,yeast gene YPR167C,1.4
same,level of expressed mRNA in the presence/in the absence of chemical substance,yeast gene YPR183W,0.9
